Measurements published in paper PMC5467912, “Asymmetric regulation of quorum-sensing receptors drives autoinducer-specific gene expression programs in Vibrio cholerae” (PLoS Genetics, 2017).
Several values for one entry are separate records, joined by “and”; a condition that tells them apart may be missing. Identical values can stand only once. Like-named read-outs stand apart in the source and are kept apart here.

How the values were obtained:
[1] = biological target: T1, CqsS (Vibrio cholerae serotype O1, UniProt Q9KM66); experiment: cell-based; conditions: for Light production: strain WN1102; for EC50: light production, reporter strain WN1102, 4 h at 30 °C; for RLU: Strain WN1102
T1 construct: endogenous in cells; host or cells: V. cholerae WN1102 (ΔcqsA ΔluxQ/pBB1), derived from C6706str2

[2] = system: CqsS F166L; experiment: CqsS-dependent repression of qrr4-gfp, CqsS F166L (Fig 7C); format: cell-based, Vibrio cholerae; conditions: Treatment 1uM; CqsS mutant F166L
[3] = system: T2, WT CqsS; format: biochemical; conditions: for % Total Phosphorylation: CqsS WT; for inhibition of WT CqsS autophosphorylation: saturating concentration (Fig 7B)
T2 construct: made in house; host or cells: E. coli C43 (DE3), pET21b; used as inverted membrane vesicles

[4] = system: T3, CqsS D618N; experiment: CqsS D618N autophosphorylation in inverted membrane vesicles, 32P (Fig 7A); format: biochemical, Vibrio cholerae
T3 construct: made in house; host or cells: E. coli C43 (DE3), pET21b; used as inverted membrane vesicles

[5] = system: CqsS F162A; experiment: CqsS-dependent repression of qrr4-gfp, CqsS F162A (Fig 7C); format: cell-based, Vibrio cholerae; conditions: Treatment 1uM; CqsS mutant F162A
[6] = system: CqsS C170Y; experiment: CqsS-dependent repression of qrr4-gfp, CqsS C170Y (Fig 7C); format: cell-based, Vibrio cholerae; conditions: Treatment 1uM; CqsS mutant C170Y
[7] = system: T2, WT CqsS; format: cell-based; conditions: Treatment 1uM

SMILES: O=C(Cc1ccc(-c2ccccc2)cc1)NC1CCCC1 [#10]
- Light production ([1]; Agonist 0.0119209 nM): 9369.4 RLU and 6986.9 RLU and 10942 RLU
- Light production ([1]; Agonist 0.0476837 nM): 9423.1 RLU and 8000 RLU and 9340.1 RLU
- Light production ([1]; Agonist 0.190735 nM): 12692 RLU and 13456 RLU and 11192 RLU
- Light production ([1]; Agonist 0.762939 nM): 11313 RLU and 14104 RLU and 15238 RLU
- Light production ([1]; Agonist 3.05176 nM): 22600 RLU and 24142 RLU and 30238 RLU
- Light production ([1]; Agonist 12.207 nM): 47534 RLU and 48144 RLU and 43294 RLU
- Light production ([1]; Agonist 48.8281 nM): 434632 RLU and 280649 RLU and 290930 RLU
- Light production ([1]; Agonist 195.312 nM): 18756970 RLU and 17581320 RLU and 17098310 RLU
- Light production ([1]; Agonist 781.25 nM): 54801790 RLU and 56977330 RLU and 58542960 RLU
- Light production ([1]; Agonist 3125 nM): 59104040 RLU and 65075830 RLU and 69081300 RLU
- Light production ([1]; Agonist 12500 nM): 60176380 RLU and 64830980 RLU and 65866960 RLU
- Light production ([1]; Agonist 50000 nM): 60204070 RLU and 58034020 RLU and 58318400 RLU
- EC50 [1]: 62 nM
- Qrr4-GFP/OD600 [2]: 1551288 and 1596042 and 1572105
- % Total Phosphorylation ([3]; Agonist 0.1 uM): 86.7558%
- % Total Phosphorylation ([3]; Agonist 0.5 uM): 84.62% and 81.5912%
- % Total Phosphorylation ([3]; Agonist 1 uM): 70.72%
- % Total Phosphorylation ([3]; Agonist 5 uM): 11.17% and 6.892%
- % Total Phosphorylation ([3]; Agonist 10 uM): 7.64% and 4.71%
- % Total Phosphorylation ([3]; Agonist 20 uM): 4.64% and 6.727%
- % Total Phosphorylation ([3]; Agonist 30 uM): 7.41% and 4.674%
- % Total Phosphorylation ([3]; Agonist 100 uM): 7.94% and 6.455%
- % Total Phosphorylation ([3]; Agonist 200 uM): 9.2% and 11.8727%
- inhibition of WT CqsS autophosphorylation [3]: 90%
- % Total Phosphorylation ([4]; agonist 0.32 uM): 78.2169% and 129.787% and 72.1832% and 83.4166% and 68.7823%
- % Total Phosphorylation ([4]; agonist 0.64 uM): 67.6455% and 78.826% and 54.4942% and 82.803% and 54.4178% and 76.2235%
- % Total Phosphorylation ([4]; agonist 5.12 uM): 12.1256% and 15.8552% and 14.0183% and 14.8493% and 9.564% and 18.5457%
- % Total Phosphorylation ([4]; agonist 6.4 uM): 8.254% and 10.2835% and 8.308% and 5.772% and 5.105% and 9.008%
- % Total Phosphorylation ([4]; agonist 8 uM): 7.787% and 6.051% and 9.483% and 6.182% and 5.718% and 6.335%
- Qrr4-GFP/OD600 [5]: 18605320 and 18513840 and 18292630
- Qrr4-GFP/OD600 [6]: 18211540 and 17807950 and 19517480
- Qrr4-GFP/OD600 [7]: 1697194 and 1657949 and 1642162

SMILES: CCn1nnnc1NCc1ccc(N2CCCC2)cc1 [#1]
- Light production ([1]; Agonist 0.0119209 nM): 14433 RLU and 16087 RLU and 17053 RLU
- Light production ([1]; Agonist 0.0476837 nM): 23351 RLU and 21676 RLU and 24048 RLU
- Light production ([1]; Agonist 0.190735 nM): 38851 RLU and 41951 RLU and 36905 RLU
- Light production ([1]; Agonist 0.762939 nM): 87702 RLU and 80982 RLU and 79024 RLU
- Light production ([1]; Agonist 3.05176 nM): 716543 RLU and 579623 RLU and 556962 RLU
- Light production ([1]; Agonist 12.207 nM): 18832900 RLU and 18957270 RLU and 17907730 RLU
- Light production ([1]; Agonist 48.8281 nM): 80742000 RLU and 84094230 RLU and 86837650 RLU
- Light production ([1]; Agonist 195.312 nM): 115208300 RLU and 122904000 RLU and 129103600 RLU
- Light production ([1]; Agonist 781.25 nM): 116783100 RLU and 133656800 RLU and 131724500 RLU
- Light production ([1]; Agonist 3125 nM): 109482900 RLU and 129285000 RLU and 130316000 RLU
- Light production ([1]; Agonist 12500 nM): 93560740 RLU and 110559800 RLU and 116375500 RLU
- Light production ([1]; Agonist 50000 nM): 59185800 RLU and 66981220 RLU and 65547470 RLU
- fold more potent than CAI-1 ([1]; EC50 comparison): ~ 10 fold
- RLU ([1]; agonist 0.0119209 nM): 1.70E+04 RLU and 1.69E+04 RLU and 1.12E+04 RLU
- RLU ([1]; agonist 0.0476837 nM): 2.55E+04 RLU and 2.29E+04 RLU and 2.60E+04 RLU
- RLU ([1]; agonist 0.190735 nM): 4.47E+04 RLU and 4.12E+04 RLU and 4.19E+04 RLU
- RLU ([1]; agonist 0.762939 nM): 6.42E+04 RLU and 6.05E+04 RLU and 7.48E+04 RLU
- RLU ([1]; agonist 3.05176 nM): 2.06E+05 RLU and 2.32E+05 RLU and 3.12E+05 RLU
- RLU ([1]; agonist 12.207 nM): 1.01E+07 RLU and 9.84E+06 RLU and 1.23E+07 RLU
- RLU ([1]; agonist 48.8281 nM): 9.23E+07 RLU and 8.51E+07 RLU and 1.09E+08 RLU
- RLU ([1]; agonist 195.312 nM): 1.65E+08 RLU and 1.58E+08 RLU and 1.92E+08 RLU
- RLU ([1]; agonist 781.25 nM): 1.94E+08 RLU and 2.03E+08 RLU and 2.28E+08 RLU
- RLU ([1]; agonist 3125 nM): 2.05E+08 RLU and 2.11E+08 RLU and 2.23E+08 RLU
- RLU ([1]; agonist 12500 nM): 1.88E+08 RLU and 1.94E+08 RLU and 1.93E+08 RLU
- RLU ([1]; agonist 50000 nM): 1.33E+08 RLU and 1.29E+08 RLU
- EC50 [1]: 4 nM
- Qrr4-GFP/OD600 [2]: 1372627 and 1402431 and 1341231
- % Total Phosphorylation ([3]; Agonist 0.1 uM): 100.558% and 115.09% and 103.96% and 101.973%
- % Total Phosphorylation ([3]; Agonist 0.5 uM): 68.5791% and 92.92% and 82.55% and 69.9852%
- % Total Phosphorylation ([3]; Agonist 1 uM): 45.0881% and 63.83% and 58.45% and 44.3406%
- % Total Phosphorylation ([3]; Agonist 2.5 uM): 26.3754% and 21.56% and 17.64% and 21.3677%
- % Total Phosphorylation ([3]; Agonist 5 uM): 11.5601% and 8.94% and 7.65% and 9.2554%
- % Total Phosphorylation ([3]; Agonist 10 uM): 6.306% and 5.77% and 3.8% and 4.014%
- % Total Phosphorylation ([3]; Agonist 20 uM): 3.59% and 2.41% and 2.332%
- % Total Phosphorylation ([3]; Agonist 30 uM): 2.867% and 2.2% and 1.97% and 1.073%
- % Total Phosphorylation ([3]; Agonist 100 uM): 1.456% and 1.61% and 2.02% and 0.9371%
- % Total Phosphorylation ([3]; Agonist 200 uM): 0.8391% and 0.1631%
- inhibition of WT CqsS autophosphorylation [3]: 99%
- % Total Phosphorylation ([4]; agonist 0.32 uM): 64.1931% and 55.8048% and 58.0668% and 77.924% and 56.4082%
- % Total Phosphorylation ([4]; agonist 10 uM): 1.9% and 2.181% and 3.3092% and 3.5805%
- Qrr4-GFP/OD600 [5]: 15523160 and 14988240 and 15125460
- Qrr4-GFP/OD600 [6]: 18211780 and 19558860 and 23085030
- Qrr4-GFP/OD600 [7]: 1321723 and 1319147 and 1356464
